# Results as given in paper PMC11844072, “Novel 5,6-dichlorobenzimidazole derivatives as dual BRAFWT and BRAFV600E inhibitors: design, synthesis, anti-cancer activity and molecular dynamics simulations” (BMC Chemistry, 2025).
# Tests used:
# Assay in all cases: NCI 60 single concentration growth inhibition
# Assay type in all cases: cell-based, human
# [1] = system: SR; settings: Leukemia, 10 μM
# Method: (§1) The synthesized dichlorobenzimidazoles 10a–p were assayed for their influence on divers cancer cell lines according to the method presented in the Additional file A.
# (§2) 5. Screening of cytotoxic activity against a panel of sixty human tumor cell lines
# (§3) The selected compounds by NCI were evaluated for their anticancer activity in a two-stage process. First, these compounds were screened against the full NCI 60 cell lines panel at a single high dose of 10 µM. Then, the output from the single dose screen is reported as a mean graph. […]
# (§4) at five different minimal concentrations.
# (§5) Assay protocol. The human tumor cell lines of the cancer screening panel are grown in RPMI 1640 medium containing 5% fetal bovine serum and 2 mM L-glutamine. For a typical screening experiment, cells are inoculated into 96 well microtiter plates in 100 µL at plating densities ranging from 5000 to 40,000 cells/well depending on the doubling time of individual cell lines. After cell inoculation, the microtiter plates are incubated at 37 °C, 5% CO 2, 95% air and 100% relative humidity for 24 h prior to addition of the experimental drugs.
# (§6) After 24 h, two plates of each cell line are fixed in situ with TCA, to represent a measurement of the cell population for each cell line at the time of drug addition (Tz). The experimental drugs are solubilized in dimethyl sulfoxide at 400-fold the desired final maximum test concentration and stored frozen prior to use. At the time of drug addition, an aliquot of frozen concentrate is thawed and diluted to twice the desired final maximum test concentration with complete medium containing 50 µg/mL gentamicin. Additional four, 10-fold or ½ log serial dilutions are made to provide a total of five drug concentrations plus control.
# (§7) Aliquots of […] of these different drug dilutions are added to the appropriate microtiter wells already containing […] of medium, resulting in the required final drug concentrations.
# (§8) Following drug addition, the plates are incubated for an additional 48 h at 37 °C, 5% CO 2, 95% air, and 100% relative humidity. For adherent cells, the assay is terminated by the addition of cold TCA.
# (§9) Cells are fixed in situ by the gentle addition of 50 µL of cold 50% (w/v) TCA (final concentration, 10% TCA) and incubated for 60 min at 4 °C. The supernatant is discarded, and the plates are washed five times with tap water and air dried. Sulforhodamine B (SRB) solution ([…]) at 0.4% (w/v) in 1% acetic acid is added to each well, and plates are incubated for 10 min at room temperature. After staining, unbound dye is removed by washing five times with 1% acetic acid and the plates are air dried. Bound stain is subsequently solubilized with 10 mM trizma base, and the absorbance is read on an automated plate reader at a wavelength of 515 nm. For suspension cells, the methodology is […]
# (§10) the same except that the assay is terminated by fixing settled cells at the bottom of the wells by gently adding 50 µl of 80% TCA (final concentration, 16% TCA). Using the seven absorbance measurements [time zero, (Tz), control growth, (C), and test growth in the presence of drug at the five concentration levels (Ti)], the percentage growth is calculated at each of the drug concentrations […]
# (§11) Percentage growth inhibition is calculated as: [(Ti Tz)/(C–Tz)] x 100 for concentrations for which Ti>/=Tz and [(Ti-Tz)/Tz] x 100 for concentrations for which Ti < Tz.
# (§12) Three dose response parameters are calculated for each experimental agent. Growth […]
# (§13) concentration resulting in a 50% reduction in the net protein increase (as measured by SRB staining) in control cells during the drug incubation. The drug concentration resulting in total growth inhibition (TGI) is calculated from Ti = Tz. […]
# (§14) reduction in the measured protein at the end of the drug treatment as compared to that at the beginning) indicating a net loss of cells following treatment is calculated from [(Ti–Tz)/Tz] x 100 =
# (§15) _50. Values are calculated for each of these three parameters if the level of activity is reached; […]
# [2] = system: MDA-MB-435; settings: MDA-MB-435, Melanoma, 10 μM
# Method: as §1, §2, §3, §4, §5, §6, §7, §8, §9, §10, §11, §12, §13, §14, §15
# [3] = system: A498; settings: A498, Renal cancer, 10 μM
# Method: as §1, §2, §3, §4, §5, §6, §7, §8, §9, §10, §11, §12, §13, §14, §15
# [4] = system: NCI-H23; settings: NCI-H23, Non-small cell lung cancer, 10 μM
# Method: as §1, §2, §3, §4, §5, §6, §7, §8, §9, §10, §11, §12, §13, §14, §15
# [5] = system: CCRF-CEM; settings: Leukemia, 10 μM
# Method: as §1, §2, §3, §4, §5, §6, §7, §8, §9, §10, §11, §12, §13, §14, §15
# [6] = system: UACC-257; settings: UACC-257, Melanoma, 10 μM
# Method: as §1, §2, §3, §4, §5, §6, §7, §8, §9, §10, §11, §12, §13, §14, §15
# [7] = system: HCT-116; settings: HCT-116, Colon cancer, 10 μM
# Method: as §1, §2, §3, §4, §5, §6, §7, §8, §9, §10, §11, §12, §13, §14, §15
# [8] = system: SF-268; settings: SF-268, CNS cancer, 10 μM
# Method: as §1, §2, §3, §4, §5, §6, §7, §8, §9, §10, §11, §12, §13, §14, §15
# [9] = system: A549/ATCC; settings: Non-small cell lung cancer, 10 μM
# Method: as §1, §2, §3, §4, §5, §6, §7, §8, §9, §10, §11, §12, §13, §14, §15
# [10] = system: HOP-62; settings: HOP-62, Non-small cell lung cancer, 10 μM
# Method: as §1, §2, §3, §4, §5, §6, §7, §8, §9, §10, §11, §12, §13, §14, §15
# [11] = system: M14; settings: M14, Melanoma, 10 μM
# Method: as §1, §2, §3, §4, §5, §6, §7, §8, §9, §10, §11, §12, §13, §14, §15
# [12] = system: EKVX; settings: Non-small cell lung cancer, 10 μM
# Method: as §1, §2, §3, §4, §5, §6, §7, §8, §9, §10, §11, §12, §13, §14, §15
# [13] = system: MOLT-4; settings: MOLT-4, Leukemia, 10 μM
# Method: as §1, §2, §3, §4, §5, §6, §7, §8, §9, §10, §11, §12, §13, §14, §15
# [14] = system: OVCAR-5; settings: OVCAR-5, Ovarian cancer, 10 μM
# Method: as §1, §2, §3, §4, §5, §6, §7, §8, §9, §10, §11, §12, §13, §14, §15
# [15] = system: SK-MEL-2; settings: SK-MEL-2, Melanoma, 10 μM
# Method: as §1, §2, §3, §4, §5, §6, §7, §8, §9, §10, §11, §12, §13, §14, §15
# [16] = system: HL-60(TB); settings: Leukemia, 10 μM
# Method: as §1, §2, §3, §4, §5, §6, §7, §8, §9, §10, §11, §12, §13, §14, §15
# [17] = system: 786-0; settings: 786-0, Renal cancer, 10 μM
# Method: as §1, §2, §3, §4, §5, §6, §7, §8, §9, §10, §11, §12, §13, §14, §15
# [18] = system: NCI-H226; settings: NCI-H226, Non-small cell lung cancer, 10 μM
# Method: as §1, §2, §3, §4, §5, §6, §7, §8, §9, §10, §11, §12, §13, §14, §15
# [19] = system: RPMI-8226; settings: RPMI-8226, Leukemia, 10 μM
# Method: as §1, §2, §3, §4, §5, §6, §7, §8, §9, §10, §11, §12, §13, §14, §15
# [20] = system: SF-295; settings: SF-295, CNS cancer, 10 μM
# Method: as §1, §2, §3, §4, §5, §6, §7, §8, §9, §10, §11, §12, §13, §14, §15
# [21] = system: HS 578T; settings: Breast cancer, 10 μM
# Method: as §1, §2, §3, §4, §5, §6, §7, §8, §9, §10, §11, §12, §13, §14, §15
# [22] = system: CAKI-1; settings: CAKI-1, Renal cancer, 10 μM
# Method: as §1, §2, §3, §4, §5, §6, §7, §8, §9, §10, §11, §12, §13, §14, §15
Substance,GI% [1],GI% [2],GI% [3],GI% [4],GI% [5],GI% [6],GI% [7],GI% [8],GI% [9],GI% [10],GI% [11],GI% [12],GI% [13],GI% [14],GI% [15],GI% [16],GI% [17],GI% [18],GI% [19],GI% [20],also measured
"2-(4-((2-(2-(5,6-Dichloro-2-(4-methoxyphenyl)-1H-benzo[d]imidazol-1-yl)acetyl)hydrazono)methyl) -2-methoxyphenoxy)acetic acid [Compound 10m]",– (GI% < 5%),– (GI% < 5%),– (GI% < 5%),8.00%,– (GI% < 5%),– (GI% < 5%),– (GI% < 5%),– (GI% < 5%),– (GI% < 5%),– (GI% < 5%),– (GI% < 5%),– (GI% < 5%),– (GI% < 5%),– (GI% < 5%),– (GI% < 5%),– (GI% < 5%),– (GI% < 5%),11.67%,– (GI% < 5%),– (GI% < 5%),GI% [21]: – (GI% < 5%); GI% [22]: – (GI% < 5%)
"2-(5-((2-(2-(5,6-Dichloro-2-(4-methoxyphenyl)-1H-benzo[d]imidazol-1-yl)acetyl)hydrazono)methyl)-2-methoxyphenoxy)acetic acid [Compound 10n]",9.65%,– (GI% < 5%),– (GI% < 5%),9.67%,– (GI% < 5%),– (GI% < 5%),6.00%,– (GI% < 5%),– (GI% < 5%),– (GI% < 5%),– (GI% < 5%),– (GI% < 5%),10.12%,– (GI% < 5%),– (GI% < 5%),– (GI% < 5%),– (GI% < 5%),10.07%,– (GI% < 5%),– (GI% < 5%),GI% [21]: 6.21%; GI% [22]: – (GI% < 5%)
